This is an account of results in US9364462B2, “Alpha-1-adrenergic receptor agonist therapy” (The Regents of the University of California, priority 2012, dated 2016).

A short description of series [1]: Blood pressure after acute intraperitoneal injection, indwelling arterial catheter. The format is in vivo, mouse. To be noted: 10 ng/kg injected acutely intraperitoneal. The procedure: The classic effect of alpha-1-agonists is to increase BP by stimulating smooth muscle cells to contract. It could be a disadvantage in heart failure (HF) therapy to increase BP excessively. On the other hand, all current recommended drugs in HF reduce BP, and a drug that increased BP slightly might have a strong therapeutic advantage. […] The foregoing experiments provided the rationale to test treatment with A61603 at 10 ng/kg/d in a mouse model of cardiomyopathy and HF.

In another series the test system is α1A receptors. As to conditions: cited from earlier work.
For a further series, the system named is kinase ERK. The series is described as follows: ERK activation in neonatal rat cardiac muscle cells in vitro. The format is cell-based. To be noted: FIG. 1. From the text:
FIG. 1. A61603 protects neonatal cardiac muscle cells.

A short description of series [2]: Doxorubicin cardiomyopathy model in adult mice. The format is in vivo, mouse. As to the method: FIG. 6. A61603 prevents doxorubicin cardiomyopathy. DOX was given to adult mice in a single intraperitoneal dose of 25 mg/kg. A61603 was infused subcutaneously (osmotic minipump) for 1 week (top left). We monitored mouse survival over the week, and at the end of 1 week measured heart cell damage and function.
In summary, the alpha-1A agonist A61603 is protective and adaptive in cardiac muscle cells in vitro and in vivo. […] A61603 protects against mortality and cardiomyopathy, by preventing cell death and fibrosis. We chose a model of cardiomyopathy caused by a cancer drug, the anthracycline doxorubicin (DOX). Cancer drug cardiotoxicity is a common and growing problem. We used the same protocol that tested A61603 BP and signaling effects (FIG. 5).

In a further series the test system is ERK. The series is described as follows: ERK activation in adult mouse cardiac muscle cells. The format is cell-based. As to conditions: low concentration, FIG. 3 left. From the text: (§1) FIG. 3. A61603 protects adult cardiac muscle cells. In adult mouse cardiac muscle cells, A61603 at a low concentration activates ERK (left), and protects against a cardiotoxic cancer drug, (DOX) (right). These effects are not blocked by a beta-blocker, propranolol (Prop), which is current standard of care in heart failure therapy. That is, A61603 effects are additive to those of a beta-blocker. Knockout of the alpha-1A receptor (AKO) eliminates myocyte protection by A61603 (right), showing that the drug does indeed work through the alpha-1A, as expected.

Series [3] concerns adult mouse cardiac muscle cells. The series is described as follows: Protection of adult mouse cardiac muscle cells against doxorubicin (DOX). The format is cell-based.
Source text: as §1

The nature of series [4]: Right ventricle cardiomyopathy in pulmonary hypertension (bleomycin) model. The format is in vivo, mouse. From the text: FIG. 11. A61603 reduces right ventricle (RV) cardiomyopathy in pulmonary hypertension. Mice had bleomycin instilled into the trachea and treatment with A61603 or vehicle. […] Mice with the alpha-1A knocked out did worse (α1ABKO).
Studies in mice looking at alpha-1 agonist therapy, using A61603, in a model of right ventricular failure from pulmonary hypertension. Failure of the right ventricle (RV) is a serious consequence of HF due to disease of the left ventricle (LV), and is also seen as an isolated problem, e.g. in lung disease (e.g. lung fibrosis), where treatment is extremely limited. Experiments were conducted with A61603 therapy in a mouse model of RV cardiomyopathy caused by pulmonary hypertension, which in turn was caused by lung fibrosis. Installation of bleomycin into the lung, caused fibrosis and secondary pulmonary hypertension and RV failure. Mice were treated continuously with A61603 or vehicle.

The nature of series [5]: Ischemic, post-myocardial infarction (LAD ligation) cardiomyopathy model. The format is in vivo, mouse. From the text: FIG. 9. A61603 rescues ischemic, post-myocardial infarction (MI) cardiomyopathy. Mice had echo 4 weeks after LAD ligation (MI), at which time they were randomized to treatment with A61603, at the same low dose, or vehicle.
FIG. 10. A61603 in ischemic, post-MI cardiomyopathy improves growth and protection, and reduces fibrosis. Values are normalized to mice treated with vehicle. Mice treated with A61603 had smaller atria, less fibrosis, higher fractional shortening (FS), smaller left ventricle end diastolic diameter (LVEDD), and larger myocyte size in the surviving heart (MC CSA). The size of the MI was unchanged, as expected because treatment started 4 weeks after LAD ligation, by which time the MI had healed.
Studies in mice looking at alpha-1 agonist therapy, using A61603, in a model of heart failure and cardiomyopathy due to myocardial infarction (heart attack). We used an animal model of myocardial infarction to test whether the alpha-1A agonist A61603 could rescue (e.g. treat) cardiomyopathy, when treatment was initiated at some time after injury (e.g. after the acute period was complete). Rescue mimics what is seen commonly in the clinic, where patients are admitted with HF, caused by a cardiomyopathy that has been present for months or years. This model was a model of ischemic, post-myocardial infarction (MI) cardiomyopathy. Ischemic heart disease caused by coronary atherosclerosis is extremely common and ischemic and overload cardiomyopathies associated with these diseases comprise the largest group of patients with HF. We used a mouse model of coronary ligation to cause MI. The mouse coronary ligation was permanent, however, patients typically have some form of reperfusion (e.g. angioplasty). We used a mouse model where the MI is healed completely, which is typical for patients admitted with HF late after MI. A61603 treatment rescued (e.g treated) the cardiomyopathy, as measured by heart function (FIG. 9A-B).
The improvement in function caused by A61603 after MI was again due to direct effects on ardiac muscle cells (FIG. 10). In this case, the effect was to increase the size of muscle cells in the surviving heart wall, helping restore the total amount of contracting heart muscle. There was also less fibrosis than control. The smaller weight of the atria indicates lower pressures within the left ventricle, a beneficial functional outcome, and the smaller diameter of the left ventricle indicates less cardiac enlargement, also a beneficial outcome.

The next series deals with α1AR. To be noted: Evans et al. (2011); cited from earlier work.
Series [6] deals with neonatal rat cardiac muscle cells. The series is described as follows: Protein synthesis in neonatal rat cardiac muscle cells in vitro. As to conditions: FIG. 2 (neonatal rat) and FIG. 20. The format is cell-based. From the text: FIG. 2. A61603 is adaptive in neonatal cardiac muscle cells.
FIG. 20. A61603 is adaptive in cardiac muscle cells.

For `CS(=O)(=O)Nc1c(O)ccc2c1CCCC2C1=NCCN1` (stereo not drawn) [A61603, N-[1-(4,5-dihydro-1H-imidazol-2-yl)-6-hydroxy-tetralin-5-yl]methanesulfonamide], the BP result in series [1] is reported as “does not increase BP”. In the series with α1A receptors (Knepper et al. (1995)), the “potency at α1A receptors relative to α1B or α1D sites” value is listed as “at least 35 fold”. Besides, in the series with α1A receptors, the “potency as α1A AR agonist relative to phenylephrine, methoxamine and midodrine” value is on record as “more potent”. Further, in the series on kinase ERK, the “activation of the kinase ERK” value was “high efficacy and potency”. Besides, the “survival after DOX” value in series [2] (DOX 25 mg/kg ip single dose, A61603 sc infusion 1 week, vs vehicle) is “markedly improved”. Moreover, in series [2] (after DOX, end of 1 week), the “cell death by apoptosis (caspase 3/7 activity and TUNEL staining)” value is “improved”; the “cell death by necrosis (serum CK, creatine kinase)” value was “improved”; the “indices of myocardial fibrosis” value is recorded as “improved”. In addition, the “protective effect on survival in alpha-1A knockout (KO)” value in [2] (alpha-1A KO mice after DOX) was “lost”. In addition, the “heart function by echocardiography (fractional shortening)” value in [2] (surviving mice, end of 1 week) is “improved”. Further, the ERK activation result in the series on ERK was “activates ERK”. In series [3] (FIG. 3 right), the “protection against cardiotoxic cancer drug (DOX)” value is “protects”. For the same compound, in series [3] (with propranolol (Prop)), the “ERK activation and DOX protection in presence of beta-blocker propranolol” value was “not blocked”. In addition, in series [4] (bleomycin into trachea, A61603 vs vehicle), the “RV failure (RV weight normalized to body weight)” value is reported as “reduced or prevented RV failure”. For the same compound, the “function of RV muscle taken from treated mice, studied in vitro” value in series [4] (bleomycin model) was “better function”. In addition, in series [5] (post-MI, normalized to vehicle), the atria size result is given as “smaller atria”, the fibrosis entry is reported as “less fibrosis”, the “left ventricle end diastolic diameter (LVEDD)” value is “smaller” and the “myocyte size in the surviving heart (MC CSA)” value is given as “larger”. Further, the “fractional shortening (FS)” value in [5] (post-MI, normalized to vehicle, FIG. 10) was “higher”. For the same compound, in series [5] (post-MI, treatment started 4 weeks after LAD ligation), the “size of the MI” value is reported as “unchanged”. Besides, the fractional shortening entry in series [5] (treatment started 4 weeks after LAD ligation (MI), low dose, vs vehicle) is on record as “stayed the same or improved”. In addition, the “cAMP accumulation through α1AR relative to cirazoline” value with α1AR is on record as “stronger stimulator”. For the same compound, in [6], the “activation of protein synthesis” value was “high efficacy and potency”.
